In ChEMBL document CHEMBL1201862, “PubChem BioAssay data set” (2004):
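Grown in 96-well plates, cells were treated for 48 hours with each compound at five concentrations. Insufficient inhibition: endpoint recorded as highest concentration tested. GI50: concentration for 50% inhibition of growth.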 Activity calls are given as the source filed them. Rule as the data show it: active = GI50 up to about 1.1 µM and inactive = higher.

Key:
Assay in all cases: NCI anticancer screen, dose series, 48 h
HCT-15 = test system: HCT-15
PC-3 = test system: PC-3
SK-MEL-2 = test system: SK-MEL-2
SF-539 = test system: SF-539
OVCAR-5 = test system: OVCAR-5
MDA-MB-435 = test system: MDA-MB-435
OVCAR-3 = test system: OVCAR-3
MDA-N = test system: MDA-N
ACHN = test system: ACHN
HCT-116 = test system: HCT-116
Malme-3M = test system: Malme-3M
RPMI-8226 = test system: RPMI-8226
RXF 393 = test system: RXF 393
OVCAR-8 = test system: OVCAR-8
DU-145 = test system: DU-145
IGROV-1 = test system: IGROV-1
SNB-19 = test system: SNB-19
TK-10 = test system: TK-10
K562 = test system: K562
HOP-92 = test system: HOP-92

Row | Structure (SMILES) | GI50 (HCT-15) [µM] | GI50 (PC-3) | GI50 (SK-MEL-2) | GI50 (SF-539) | GI50 (OVCAR-5) | GI50 (MDA-MB-435) | GI50 (OVCAR-3) | GI50 (MDA-N) | GI50 (ACHN) | GI50 (HCT-116) | GI50 (Malme-3M) | GI50 (RPMI-8226) | GI50 (RXF 393) | GI50 (OVCAR-8) | GI50 (DU-145) | GI50 (IGROV-1) | GI50 (SNB-19) | GI50 (TK-10) | GI50 (K562) | GI50 (HOP-92)
1 | Cc1ccc(NCCN(C)C)c2c(=O)c3cc(O)ccc3sc12 | 2.69 | 1.22 µM (inactive) | 20.5 µM (inactive) | 3.55 µM (inactive) | 15.3 µM (inactive) | 1.53 µM (inactive) | 9.33 µM (inactive) | 2.04 µM (inactive) | 1 µM (active) | 1.96 µM (inactive) | 5.28 µM (inactive) | 2.57 µM (inactive) | 1.22 µM (inactive) | 2.44 µM (inactive) | 2.18 µM (inactive) | 4.47 µM (inactive) | 2.64 µM (inactive) | 17.6 µM (inactive) | 1.5 µM (inactive) | 2.38 µM (inactive)
2 | CCCCCCN(C(=O)Oc1ccccc1)C(C#N)c1ccccc1 (centres undefined) | > 100 | > 100 µM (inactive) | > 100 µM (inactive) | > 100 µM (inactive) | > 100 µM (inactive) | > 100 µM (inactive) | > 100 µM (inactive) | > 100 µM (inactive) | > 100 µM (inactive) | > 100 µM (inactive) | > 100 µM (inactive) | > 100 µM (inactive) | > 100 µM (inactive) | > 100 µM (inactive) | > 100 µM (inactive) | > 100 µM (inactive) | > 100 µM (inactive) | > 100 µM (inactive) | > 100 µM (inactive) | > 100 µM (inactive)
3 | NC(Cc1ccc2nc3c4ccccc4c(=O)cc-3oc2c1)C(=O)O (centres undefined) | > 100 | > 100 µM (inactive) | 53.3 µM (inactive) | > 100 µM (inactive) | > 100 µM (inactive) | 18.2 µM (inactive) | 74.1 µM (inactive) | 16 µM (inactive) | > 100 µM (inactive) | > 100 µM (inactive) | 14.8 µM (inactive) | > 100 µM (inactive) | > 100 µM (inactive) |  | > 100 µM (inactive) | > 100 µM (inactive) | > 100 µM (inactive) | > 100 µM (inactive) | > 100 µM (inactive) | > 100 µM (inactive)
4 | Cc1cccc2c(N)c3cccc(C(=O)NCC[N+](C)(C)[O-])c3nc12 | 11.3 | 13.5 µM (inactive) | 67.5 µM (inactive) | 6.82 µM (inactive) | 5.32 µM (inactive) | 16.8 µM (inactive) | 16.1 µM (inactive) | 14.2 µM (inactive) | 2.83 µM (inactive) | 13.2 µM (inactive) | 12.7 µM (inactive) | 9.44 µM (inactive) | 12.6 µM (inactive) | 8.61 µM (inactive) | 3.02 µM (inactive) | 8.39 µM (inactive) | 7.87 µM (inactive) | 21.8 µM (inactive) | 3.13 µM (inactive) | 10.5 µM (inactive)
5 | COc1ccc(CC2NCCc3cc(OC)c(OC)cc32)cc1Br (centres undefined) | > 100 | 72.4 µM (inactive) | 27.2 µM (inactive) | 77.8 µM (inactive) | 19.5 µM (inactive) | 25.1 µM (inactive) | 76.6 µM (inactive) | 18.2 µM (inactive) | 33 µM (inactive) | 14.9 µM (inactive) | 17.3 µM (inactive) | 18.5 µM (inactive) | 15.1 µM (inactive) | 50.2 µM (inactive) | > 100 µM (inactive) | 35 µM (inactive) | 78.3 µM (inactive) | 25.6 µM (inactive) | 16.6 µM (inactive) | 15.1 µM (inactive)
6 | c1cc(CSSCc2ccncc2)ccn1 | 19.4 | 21.7 µM (inactive) | 27.9 µM (inactive) | 8.02 µM (inactive) | 55.5 µM (inactive) | 20.6 µM (inactive) | 33.6 µM (inactive) | 12.9 µM (inactive) | 42.2 µM (inactive) | 14.1 µM (inactive) | 24.9 µM (inactive) | 9.18 µM (inactive) | 23.6 µM (inactive) | 21.7 µM (inactive) | 28.9 µM (inactive) | 30.5 µM (inactive) | 34 µM (inactive) | 13.8 µM (inactive) | 14.8 µM (inactive) | 25.9 µM (inactive)
7 | O=C(c1ccc(O)c([N+](=O)[O-])c1)c1ccc(O)c([N+](=O)[O-])c1 | > 100 | 66.5 µM (inactive) | > 100 µM (inactive) | 53.5 µM (inactive) | > 100 µM (inactive) | 20.8 µM (inactive) | > 100 µM (inactive) | 53.7 µM (inactive) | > 100 µM (inactive) | > 100 µM (inactive) | 37 µM (inactive) | 3.33 µM (inactive) | > 100 µM (inactive) | > 100 µM (inactive) | > 100 µM (inactive) | > 100 µM (inactive) | > 100 µM (inactive) | > 100 µM (inactive) | 50.1 µM (inactive) | 24 µM (inactive)
